According to patent US20230391684A1, “NITROGEN FERTILIZER COMPOSITIONS BASED ON POLYPHOSPHATE CAGED STRUCTURE” (priority 2020, published 2023):

Key:
[1] = Text: The fertilizer composition will contain urea with reduced water solubility. […] Preferably no more than 30 to 60 wt. % of the urea is soluble. More preferably no more than 30 to 50 wt. % of urea is soluble.
XRD was of the granulated product which was powdered for recording of XRD.

[2] = Water leaching assay (2 g, 10 mL water, 8 min): water-soluble and water-insoluble nitrogen/urea; format: physicochemical; details: 2 g leached with 10 mL water in 8 min, dried residue
Description: Determination of water-insoluble nitrogen: 2 g of the product in powder form, is weighed into a filter paper (Whatman 1) placed in a funnel. It is leached with 10 mL water added dropwise from a burette within a period of 8 min. The wet residue is placed together with the filter paper, in a petridish and dried at 50° C. After drying, the residue is ground and used for analysis of nitrogen.
Determination of water-soluble nitrogen: 2 g of the product in powder form, is weighed into a filter paper (Whatman 1) placed in a funnel. It is leached with 10 mL water added dropwise from a burette within a period of 8 min. The filtrate is placed together with the filter paper, in a petridish and dried at 50° C. After drying, the dried mass is weighed. It is analyzed for N as described above.

total N from fertilizer soluble in water [1]: 100 wt. % | urea content of residue after leaching with water [2]: no urea was detectable
SMILES: NC(N)=O [urea]
